The results in this text go back to article PMC2873402, “Discovery of High-Affinity Protein Binding Ligands – Backwards” (PLoS ONE, 2010).

Assay [1] concerns the target T1, AKT1 (Homo sapiens, UniProt P31749). The assay is described as follows: IP of endogenous AKT1 from A549 lysate. Also noted: N-terminal vector leader of pEXP5-NT (6xHis + TEV site by own knowledge of the vector); made in house; host or cells: Expressway Mini Cell-Free Expression System (in vitro translation). Format: binding. The conditions noted are these: un-stimulated A549 lysate, 25 pmols synbody. As for the experimental part: As a preliminary test of specificity, 200 ng of AKT1 (33.2 nM) was spiked into increasing amounts of cell lysate prepared from un-stimulated A549 lung epithelial cells and streptavidin beads coated with 25 pmols of synbody (7.6∶1 synbody-to-AKT1 ratio) were used to pull down AKT1 using the same IP procedure and Western Blot protocol as before.
(§1) For all IP experiments, either a 1 µM or 250 nM solution of biotin-conjugated synbody was captured on 20 µL of streptavidin coated paramagnetic M-280 Dynabeads (Life Technologies) according to the manufacturers protocol. Synbody coated beads were washed five times with 1 mL of 100 mM phosphate buffered saline containing 0.05% Tween-20 (PBST) and incubated overnight at 4°C with shaking in the desired amount of target protein in A549 cell lysate. For Kd determination experiments, serial dilutions of AKT1 or ABL1 were prepared in binding buffer. After binding, beads were washed five times with 1 mL of PBST and heated at 70°C in 20 µL of 1× LDS loading buffer (Invitrogen) for 10 minutes. The samples were analyzed by SDS-PAGE gel with Western Blot detection using the appropriate antibody and imaged on a GE Healthcare Typhoon Trio.

Assay [2] deals with AKT3. The assay is described as follows: IP of AKT isoforms spiked into A549 lysate: AKT3. The conditions noted are these: 250 ng of each isoform in 500 µg A549 lysate, Western Blot. Type of assay: binding. As for the experimental part:
This apparent specificity was investigated further by performing an IP using 250 ng of each isoform of AKT spiked into 500 µg of A-549 cell lysate.
as §1

For assay [3], the target named is T1, AKT1. The assay is described as follows: SPR determination of Kd / binding kinetics on AKT1. Details: purchased Life Technologies. As for the experimental part: To a solution of AKT1 (25µg, 4.16×10^−10 moles, 1.0 equiv.) in 50mM Na2CO3 in 150mM NaCl, pH 9.0 (200 µl), was added a solution of NHS-LC-LC-Biotin (Thermo Scientific) (9.4 µl, 8.32×10^−10 moles, 2.0 equiv.) in DMSO. The reaction was kept on ice at 0°C with frequent agitation for 2 hours, before the mixture was transferred to a 10 kDa Millipore Microcon filter and diluted with HBS-N (200 µl). The excess biotin was removed by spinning the filter at 12,000 G until the volume on top of the filter had been reduced to 0.25 the original volume. The retentate was washed with an additional 200 µl of HBS-N and spun for a further 15 minutes. The filter was then flipped over and the protein recovered (15 µg, 60%). After filtration, an appropriate volume of 10× HBS-N was added to the sample to increase the HBS-N concentration to a 1× equivalent.
Determination of the binding kinetics of the synbody on AKT1 was performed on a Biacore A-100. The series S sensor chip CM5, amine coupling reagents and HBS-EP were obtained from GE Healthcare. A standard amine immobilization protocol was performed at 25°C using NaHCO3 (10mM in 150mM NaCl, pH 4.5) as the immobilization buffer. Spots 1,2 and 3 on each of the four flow cells of the CM-5 dextran chip were activated by a 10 minute injection of a freshly prepared 1∶1 solution of 40 0mM EDC : 100 mM NHS in water. The NHS-carboxy groups of spot 1 of the dextran surface were treated with a solution of neutravidin (50 µg/ml) in sodium acetate (pH 5.0) for 8 mins at a flow rate of 10 µl/min. Any residual active sites were then quenched by a 5 min pulse of ethylene diamine (1M, pH 8.5). Similarly neutravidin was coupled to spots 2 and 3 via a 12 and 16 min injection cycle respectively, followed by quenching. An additionally 7 min injection of ethylene diamine was then pulsed over spots 1–3 to ensure no activated sites remained. […]
For high-resolution kinetics, biotin-tagged AKT1 was captured in multiple spot densities with Rmax's ranging from 20–100 RUs. […] Association and dissociation were monitored for 3 and 16 min, respectively. […]

The subject of assay [4] is AKT3. The assay is described as follows: Protein array (ProtoArray), binding to AKT3. Details: species or system human. As for the experimental part:
Synbodies were screened on an Invitrogen ProtoArray™ (Life Technologies, Carlsbad, CA, USA) detected with Alexa-555 labeled streptavidin (Life Technologies), and scanned using a Perkin Elmer ProScan Array HTP. The spots were analyzed using GenePix Pro (Molecular Devices, Sunnyvale, CA, USA) and data were processed using Genespring GX (Agilent Technologies, Santa Clara, CA, USA). Synbodies were labeled with biotin using either Maleimide-PEG2-Biotin (Thermo Pierce, Rockford, IL, USA) to label the C-terminal cysteine or biotin was incorporated during synbody synthesis by replacing the C-terminal cysteine with Lys-biotin (Novabiochem, San Diego, CA, USA). Synbodies were screened on the array using the recommended protocol with the following modifications: the arrays were blocked with 5 mL blocking buffer (50mM HEPES pH 7.5, 200 mM NaCl, 0.08% Triton X-100, 25% Glycerol, 20mM reduced Glutathione, 1.0mM DTT, 1% BSA) for 90 min. A 200 nM synbody solution was incubated in probing buffer (1× PBS, 1% BSA, 0.1% Tween) for 90 minutes. Slides were dried by centrifugation at 200g for 1 minute and scanned at 100% laser power and 70% photomultiplier voltage. The gal file was obtained for each array by submitting the barcode of the array to www.invitrogen.com/protoarray.
Heat maps were constructed using median-normalized data from each ProtoArray. […]

Like-named read-outs stand apart in the source and are kept apart here. Bridge positions count the residues as written; N and C are the ends. Ends that are not written are not given here. I, II: the chains in the order shown. * marks the point of attachment. StBu = CC(C)(C)S*

T1 sequence (P31749 whole entry): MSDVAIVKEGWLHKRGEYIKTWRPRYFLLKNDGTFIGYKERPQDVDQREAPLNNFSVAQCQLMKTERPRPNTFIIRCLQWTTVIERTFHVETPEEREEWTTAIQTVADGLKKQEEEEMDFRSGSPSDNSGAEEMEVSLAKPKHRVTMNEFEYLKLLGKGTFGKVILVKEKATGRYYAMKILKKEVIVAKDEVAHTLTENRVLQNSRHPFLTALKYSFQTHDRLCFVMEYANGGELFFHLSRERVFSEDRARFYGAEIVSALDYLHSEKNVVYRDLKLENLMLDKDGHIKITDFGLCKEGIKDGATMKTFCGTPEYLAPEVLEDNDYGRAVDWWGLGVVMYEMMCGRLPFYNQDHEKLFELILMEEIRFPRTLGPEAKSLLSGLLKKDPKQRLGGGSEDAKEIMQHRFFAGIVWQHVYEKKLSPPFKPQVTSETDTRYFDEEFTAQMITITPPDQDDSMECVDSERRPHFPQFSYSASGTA

With “I: AHKVVPQRQIRHAYNRYGSGKC(StBu)-NH2 / II: FRGWAHIFFGPHVIYRGGSG (amide I:21-II:C) [synbody]”, in assay [1], the “precipitation of endogenous AKT1” value is given as “precipitates the very low level endogenous AKT1 from the un-stimulated cell lysate”. Moreover, in assay [2], the “IP of AKT3 (isoform selectivity)” value is listed as “relatively little”. In assay [3] (Biacore A-100, biotin-labeled AKT1 on neutravidin, synbody 25 nM to 0.78 nM, 1:1 binding model, read-out: association rate, ka), the kon is 200000 M⁻¹ s⁻¹. For the same substance, the koff in assay [3] (Biacore A-100, biotin-labeled AKT1 on neutravidin, synbody 25 nM to 0.78 nM, 1:1 binding model, read-out: dissociation rate, kd) was found to be 0.0003 s⁻¹; in assay [3] (Figure 3A, 12.5 and 6.25 nM synbody, Biacore A-100, 1:1 binding model, read-out: koff) it was 0.000295 s⁻¹. Besides, the “binding to AKT3 on protein array” value in assay [4] is recorded as “little binding”.
